Experimental data published in ChEMBL document CHEMBL5715952 (Oncotarget, 2015).
Active and inactive are the calls of the source. The calls are words filed in the database; no cut-off is given here.

Legend:
[1] = system: Bortezomib-resistant ANBL6; assay: Induction of apoptosis in human bortezomib-resistant ANBL6 cells assessed as early apoptosis at 1600 nM incubated for 72 hrs by annexin V and 7-AAD staining by flow cytometry analysis (Rvb=15 %); assay type: functional
[2] = molecular target: T1, Bromodomain and extra-terminal motif (BET) (Homo sapiens) (UniProt P25440+O60885+Q58F21+Q15059); conditions: ANBL-6, dose lower 40.0 nM, dose upper […]
[3] = Synergistic antiproliferative activity against human melphalan-resistant RPMI-8226 cells assessed as reduction in cell viability at ED50 incubated for 72 hrs in presence of bortezomib by MTS assay; assay type: functional, Melphalan-resistant RPMI-8226 cell
[4] = system: Bortezomib-resistant ANBL6; assay: Synergistic antiproliferative activity against human bortezomib-resistant ANBL6 cells assessed as reduction in cell viability at ED90 incubated for 72 hrs in presence of bortezomib by MTS assay; assay type: functional
[5] = system: ANBL-6; assay: Synergistic antiproliferative activity against wild-type human ANBL-6 cells assessed as reduction in cell viability at ED75 incubated for 72 hrs in presence of bortezomib by MTS assay; assay type: functional
[6] = molecular target: T1, Bromodomain and extra-terminal motif (BET) (Homo sapiens); conditions: Bortezomib-resistant ANBL6 cell, dose lower 40.0 nM, dose upper […]
[7] = system: ANBL-6; assay: Synergistic apoptosis activity in wild-type human ANBL-6 cells assessed as late apoptosis at 1600 nM incubated for 72 hrs in the presence of BTZ by annexin V and 7-AAD staining by flow cytometry analysis (Rvb=26 %); assay type: functional
[8] = system: Bortezomib-resistant ANBL6; assay: Induction of apoptosis in human bortezomib-resistant ANBL6 cells assessed as viable at 160 nM incubated for 72 hrs by annexin V and 7-AAD staining by flow cytometry analysis (Rvb=80 %); assay type: functional
[9] = system: RPMI-8226; assay: Synergistic antiproliferative activity against wild-type human RPMI-8226 cells assessed as reduction in cell viability at ED50 incubated for 72 hrs in presence of bortezomib by MTS assay; assay type: functional
[10] = system: Bortezomib-resistant ANBL6; assay: Induction of apoptosis in human bortezomib-resistant ANBL6 cells assessed as viable at 1600 nM incubated for 72 hrs by annexin V and 7-AAD staining by flow cytometry analysis (Rvb=80 %); assay type: functional
[11] = Synergistic antiproliferative activity against human ANBL-6 BR resistant cells assessed as reduction in cell viability at ED50 incubated for 72 hrs in presence of bortezomib by MTS assay; assay type: functional
[12] = molecular target: T1, Bromodomain and extra-terminal motif (BET) (Homo sapiens); conditions: Bortezomib-resistant ANBL6 cell, dose lower 40.0 nM, dose upper […]; remark: listed apart in the source
[13] = system: RPMI-8226; assay: Synergistic antiproliferative activity against wild-type human RPMI-8226 cells assessed as reduction in cell viability at ED75 incubated for 72 hrs in presence of bortezomib by MTS assay; assay type: functional
[14] = system: Bortezomib-resistant ANBL6; assay: Synergistic apoptosis activity in human bortezomib-resistant ANBL6 cells assessed as early apoptosis at 1600 nM incubated for 72 hrs in the presence of BTZ by annexin V and 7-AAD staining by flow cytometry analysis (Rvb=15 %); assay type: functional
[15] = system: Bortezomib-resistant ANBL6; assay: Synergistic apoptosis activity in human bortezomib-resistant ANBL6 cells assessed as viable at 1600 nM incubated for 72 hrs in the presence of BTZ by annexin V and 7-AAD staining by flow cytometry analysis (Rvb=80 %); assay type: functional
[16] = system: ANBL-6; assay: Synergistic apoptosis activity in wild-type human ANBL-6 cells assessed as early apoptosis at 1600 nM incubated for 24 hrs in the presence of BTZ by annexin V and 7-AAD staining by flow cytometry analysis; assay type: functional
[17] = system: ANBL-6; assay: Synergistic apoptosis activity in wild-type human ANBL-6 cells assessed as viable at 1600 nM incubated for 72 hrs in the presence of BTZ by annexin V and 7-AAD staining by flow cytometry analysis (Rvb=59 %); assay type: functional
[18] = molecular target: T1, Bromodomain and extra-terminal motif (BET) (Homo sapiens); conditions: ANBL-6, dose lower 40.0 nM, dose upper […]; remark: listed apart in the source
[19] = system: Bortezomib-resistant ANBL6; assay: Induction of apoptosis in human bortezomib-resistant ANBL6 cells assessed as late apoptosis at 160 nM incubated for 72 hrs by annexin V and 7-AAD staining by flow cytometry analysis (Rvb=5 %); assay type: functional
[20] = system: ANBL-6; assay: Synergistic apoptosis activity in wild-type human ANBL-6 cells assessed as early apoptosis at 1600 nM incubated for 48 hrs in the presence of BTZ by annexin V and 7-AAD staining by flow cytometry analysis; assay type: functional
[21] = system: ANBL-6; assay: Induction of apoptosis in wild-type human ANBL-6 cells assessed as viable at 40 nM incubated for 72 hrs by annexin V and 7-AAD staining by flow cytometry analysis (Rvb=59 %); assay type: functional
[22] = molecular target: T1, Bromodomain and extra-terminal motif (BET) (Homo sapiens); conditions: ANBL-6, dose lower 40.0 nM, dose upper […]; remark: listed apart in the source
[23] = molecular target: T1, Bromodomain and extra-terminal motif (BET) (Homo sapiens); conditions: Bortezomib-resistant ANBL6 cell, dose lower 40.0 nM, dose upper […]; remark: listed apart in the source
[24] = system: ANBL-6; assay: Synergistic antiproliferative activity against wild-type human ANBL-6 cells assessed as reduction in cell viability at ED90 incubated for 72 hrs in presence of bortezomib by MTS assay; assay type: functional
[25] = molecular target: T1, Bromodomain and extra-terminal motif (BET) (Homo sapiens); conditions: ANBL-6, dose lower 40.0 nM, dose upper […]; remark: listed apart in the source
[26] = system: Bortezomib-resistant ANBL6; assay: Synergistic apoptosis activity in human bortezomib-resistant ANBL6 cells assessed as late apoptosis at 1600 nM incubated for 72 hrs in the presence of BTZ by annexin V and 7-AAD staining by flow cytometry analysis (Rvb=5 %); assay type: functional
[27] = system: ANBL-6; assay: Induction of apoptosis in wild-type human ANBL-6 cells assessed as early apoptosis at 1600 nM incubated for 72 hrs by annexin V and 7-AAD staining by flow cytometry analysis (Rvb=14 %); assay type: functional
[28] = system: Bortezomib-resistant ANBL6; assay: Synergistic apoptosis activity in human bortezomib-resistant ANBL6 cells assessed as early apoptosis at 1600 nM incubated for 72 hrs in the presence of BTZ by annexin V and 7-AAD staining by flow cytometry analysis; assay type: functional
[29] = system: ANBL-6; assay: Synergistic antiproliferative activity against wild-type human ANBL-6 cells assessed as reduction in cell viability at ED50 incubated for 72 hrs in presence of bortezomib by MTS assay; assay type: functional
[30] = system: Bortezomib-resistant ANBL6; assay: Synergistic apoptosis activity in human bortezomib-resistant ANBL6 cells assessed as early apoptosis at 1600 nM incubated for 24 hrs in the presence of BTZ by annexin V and 7-AAD staining by flow cytometry analysis; assay type: functional
[31] = system: ANBL-6; assay: Induction of apoptosis in wild-type human ANBL-6 cells assessed as early apoptosis at 40 nM incubated for 72 hrs by annexin V and 7-AAD staining by flow cytometry analysis (Rvb=14 %); assay type: functional
[32] = system: ANBL-6; assay: Induction of apoptosis in wild-type human ANBL-6 cells assessed as late apoptosis at 40 nM incubated for 72 hrs by annexin V and 7-AAD staining by flow cytometry analysis (Rvb=26 %); assay type: functional

SMILES: Cc1sc2c(c1C)C(c1ccc(Cl)cc1)=N[C@@H](CC(N)=O)c1nnc(C)n1-2
- Activity [1]: 30%
- inhibition [2]: Active
- CI [3]: 0.925
- CI [4]: 0.355
- CI [5]: 0.692
- inhibition [6]: Active
- Activity [7]: 10%
- Activity [8]: 78%
- CI [9]: 1.367
- Activity [10]: 54%
- CI [11]: 0.718
- inhibition [12]: inactive
- CI [13]: 1.15
- Activity [14]: 67%
- Activity [15]: 23%
- CI [16]: 0.85
- Activity [17]: 6%
- inhibition [18]: Active
- Activity [19]: 4%
- CI [20]: 0.24
- Activity [21]: 59%
- inhibition [22]: Dose-Dependent Effect
- inhibition [23]: Dose-Dependent Effect
- CI [24]: 0.614
- inhibition [25]: inactive
- Activity [26]: 10%
- Activity [27]: 31%
- CI [28]: 0.87
- CI [29]: 0.793
- CI [30]: 0.99
- Activity [31]: 12%
- Activity [32]: 28%
